Reference: patent US11517532B2, “Methods of treating hepatitis delta virus infection” (Eiger BioPharmaceuticals, Inc., priority 2015, dated 2022)
Like-named read-outs stand apart in the source and are kept apart here.

Legend:
[1] = Lonafarnib serum concentration in HDV patients, Example 3; assay type: in vivo, human; conditions: for LNF Serum Concentration at Week 6 / concentration at 6 weeks: oral; for LNF Serum Concentration at Week 6: listed as LNF; for concentration at 6 weeks: human, serum, po, read-out: LNF Serum Concentration at Week 6
Description: Serum levels of lonafarnib can be measured using art-known methods. As used herein, a serum lonafarnib level or concentration can be measured from a serum sample obtained from a subject periodically (such as weekly, biweekly, monthly or according to other schedules) and the levels during intervening periods can be extrapolated. For example, if a measurement of 4,000 ng/ml is obtained at 4 weeks and a measurement of 6,000 ng/ml is obtained at 6 weeks, for purposes of this analysis it is concluded that the serum level during the intervening two weeks ranged between 4,000 and 6,000 ng/ml. In some embodiments the first measurement is made no earlier than one week after the initiation of oral therapy.
This example describes the anti-HDV effect of combination therapy with separately formulated lonafarnib and ritonavir at several combinations of dosages. Eight patients with chronic HDV infection were divided into four groups and treated with different dose combinations of separately formulated lonafarnib and ritonavir (orally administered) for 42 days under the regimens summarized in Table 10. The patients were followed for an additional period of time after discontinuation of therapy.

[2] = cited from earlier work
[3] = formulated in crystalline forms, animals; cited from earlier work
[4] = Group 2 (Patients 3-4): lonafarnib 100 mg BID + ritonavir 50 mg QD
[5] = Group 3 (Patients 5-6): lonafarnib 100 mg QD + ritonavir 100 mg QD
[6] = Group 4 (Patients 7-8): lonafarnib 150 mg QD + ritonavir 100 mg QD

LNF Serum Concentration at Week 6 [1, 4]: 3044 ng/mL
LNF Serum Concentration at Week 6 [1, 5]: 1640 ng/mL
LNF Serum Concentration at Week 6 [1, 6]: 1830 ng/mL
lonafarnib serum levels (FIG. 6) ([1]; Patient 8, reduced correlation with HDV viral load): ~2,000 ng/mL
LNF serum concentrations ([1]; QD dosing of ritonavir): 2500 to 3500 ng/mL
concentration at 6 weeks [1, 4]: 4020 ng/mL
concentration at 6 weeks [1, 5]: 2340 ng/mL
concentration at 6 weeks [1, 6]: 1840 ng/mL
lonafarnib serum levels (FIG. 5) ([1]; one patient, 100 mg BID lonafarnib + 100 mg QD ritonavir, inverse correlation with HDV viral load): ~5,000 ng/mL
SMILES: NC(=O)N1CCC(CC(=O)N2CCC([C@H]3c4ncc(Br)cc4CCc4cc(Cl)cc(Br)c43)CC2)CC1 [lonafarnib]
stability in solution ([2]; by pH): stable at neutral pH but will hydrolyze in acidic or basic conditions
water solubility [2]: poorly water soluble
bioavailability [3]: low and variable
